{
  "source": "ChEMBL document CHEMBL4834431",
  "about": "“Design of Dimeric Bile Acid Derivatives as Potent and Selective Human NTCP Inhibitors” (J Med Chem, 2021)",
  "key": {"Hepatitis B virus [1]": {"test_system": "Hepatitis B virus", "test": "Antiviral activity against HBV infected in human HepG2-NTCP cells assessed as reduction in HBeAg secretion at 31.25 to 2000 nM incubated for 24 hrs followed by replacement with fresh medium and measured at day 5 post infection by ELISA", "assay_type": "functional, organism-based", "details": "dose 31.25-2000 nM"}, "Hepatitis B virus [2]": {"test_system": "Hepatitis B virus", "test": "Antiviral activity against HBV infected in human HepG2-NTCP cells assessed as reduction in HBeAg secretion at 1 uM preincubated with compound followed by viral infection by ELISA", "assay_type": "functional, organism-based"}, "[3]": {"target": "T1, Ileal sodium/bile acid cotransporter (Homo sapiens, UniProt Q12908)", "T1 sequence (Q12908 whole entry)": "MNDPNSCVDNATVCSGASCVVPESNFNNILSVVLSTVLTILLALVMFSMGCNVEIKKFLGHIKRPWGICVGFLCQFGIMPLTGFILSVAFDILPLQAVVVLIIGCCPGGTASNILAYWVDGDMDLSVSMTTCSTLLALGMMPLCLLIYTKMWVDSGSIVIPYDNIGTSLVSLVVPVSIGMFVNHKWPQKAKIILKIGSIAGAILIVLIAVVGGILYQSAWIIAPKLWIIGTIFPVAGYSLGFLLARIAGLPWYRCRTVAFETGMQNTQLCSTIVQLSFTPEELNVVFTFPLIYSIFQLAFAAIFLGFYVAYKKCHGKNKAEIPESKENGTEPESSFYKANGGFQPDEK", "test": "Inhibition of human ASBT-mediated [3H]-TCA uptake expressed in human HepG2 cells at 2 uM", "assay_type": "cell-based", "details": "hepg2, 2 µM"}, "[4]": {"target": "T2, Hepatic sodium/bile acid cotransporter (Homo sapiens, UniProt Q14973)", "T2 sequence (Q14973 whole entry)": "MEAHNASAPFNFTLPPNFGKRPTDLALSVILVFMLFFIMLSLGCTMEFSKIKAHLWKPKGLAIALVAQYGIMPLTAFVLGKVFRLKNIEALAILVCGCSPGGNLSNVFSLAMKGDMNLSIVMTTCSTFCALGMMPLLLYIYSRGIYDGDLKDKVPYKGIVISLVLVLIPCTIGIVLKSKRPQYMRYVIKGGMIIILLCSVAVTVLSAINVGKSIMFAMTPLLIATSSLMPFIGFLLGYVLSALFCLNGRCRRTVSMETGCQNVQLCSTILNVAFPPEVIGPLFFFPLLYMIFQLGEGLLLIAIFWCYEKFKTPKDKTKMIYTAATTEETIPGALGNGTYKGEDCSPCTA", "test": "Inhibition of human NTCP-mediated [3H]-TCA uptake expressed in human HepG2 cells pretreated for 2 hrs followed by [3H]-TCA addition in absence of FBS", "assay_type": "cell-based"}, "[5]": {"target": "T2, Hepatic sodium/bile acid cotransporter", "test": "Inhibition of human NTCP-mediated [3H]-TCA uptake expressed in human HepG2 cells at 0.4 to 10 uM incubated for 10 mins by liquid scintillation counter analysis", "assay_type": "cell-based", "details": "hepg2, 10 min, dose 0.4-10 µM"}, "[6]": {"target": "T2, Hepatic sodium/bile acid cotransporter", "test": "Inhibition of human NTCP-mediated NQL-064 uptake expressed in human HepG2 cells", "assay_type": "cell-based"}, "HepG2 [7]": {"test_system": "HepG2", "test": "Inhibition of monkey NTCP-mediated NQL-064 uptake expressed in human HepG2 cells", "assay_type": "cell-based", "details": "Macaca mulatta"}, "[8]": {"target": "Hepatic sodium/bile acid cotransporter (Homo sapiens, UniProt Q14973)", "test": "Inhibition of human NTCP residues (157 to 165) replaced with monkey NTCP -mediated [3H]-TCA uptake expressed in human HepG2 cells", "assay_type": "cell-based"}, "[9]": {"test": "Inhibition of monkey NTCP-mediated [3H]-TCA uptake expressed in human HepG2 cells", "assay_type": "cell-based", "details": "Macaca mulatta"}, "HepG2 [10]": {"test_system": "HepG2", "test": "Inhibition of tree shrew NTCP-mediated NQ-064 uptake expressed in human HepG2 cells", "assay_type": "cell-based", "details": "Scandentia"}, "[11]": {"target": "T3, Hepatic sodium/bile acid cotransporter (Mus musculus, UniProt O08705)", "T3 sequence (O08705 whole entry)": "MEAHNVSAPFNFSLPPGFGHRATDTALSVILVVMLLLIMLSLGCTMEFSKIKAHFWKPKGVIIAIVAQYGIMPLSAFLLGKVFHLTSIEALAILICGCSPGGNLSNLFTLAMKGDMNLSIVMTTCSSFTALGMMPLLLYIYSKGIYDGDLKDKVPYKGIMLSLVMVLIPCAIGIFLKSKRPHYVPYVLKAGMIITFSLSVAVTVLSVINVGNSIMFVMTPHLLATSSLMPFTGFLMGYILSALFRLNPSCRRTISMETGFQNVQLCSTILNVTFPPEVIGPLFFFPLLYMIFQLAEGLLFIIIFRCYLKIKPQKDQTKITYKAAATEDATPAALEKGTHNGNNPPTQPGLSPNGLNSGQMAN", "test": "Inhibition of mouse NTCP-mediated NQL-064 uptake expressed in human HepG2 cells", "assay_type": "cell-based"}},
  "note": "Calls of active or inactive are those of the source. The calls are words filed in the database; no cut-off is given here.",
  "data": [
    {"compound": "C[C@H](CCC(=O)O[C@@H]1CC[C@@]2(C)[C@@H](C1)C[C@H](O)[C@@H]1[C@@H]2CC[C@]2(C)[C@@H]([C@H](C)CCC(=O)NCCS(=O)(=O)O)CC[C@@H]12)[C@H]1CC[C@H]2[C@@H]3[C@@H](O)C[C@@H]4C[C@H](O)CC[C@]4(C)[C@H]3CC[C@]12C", "values": [
      {"measurement": "Activity", "setting": "Hepatitis B virus [1]", "value": "Active"},
      {"measurement": "Activity", "setting": "Hepatitis B virus [2]", "value": "Active"},
      {"measurement": "inhibition (INH)", "setting": "[3]", "value": "Not Active"},
      {"measurement": "IC50", "setting": "[4]", "value": 0.0362, "unit": "µM"},
      {"measurement": "inhibition (INH)", "setting": "[5]", "value": "Active"}
    ]},
    {"compound": "C[C@H](CCC(=O)NCCS(=O)(=O)O)[C@H]1CC[C@H]2[C@@H]3[C@@H](O)C[C@@H]4C[C@H](NC(=O)CCCC(=O)N[C@@H]5CC[C@@]6(C)[C@@H](C5)C[C@H](O)[C@@H]5[C@@H]6CC[C@]6(C)[C@@H]([C@H](C)CCC(=O)NCCS(=O)(=O)O)CC[C@@H]56)CC[C@]4(C)[C@H]3CC[C@]12C", "values": [
      {"measurement": "inhibition (INH)", "setting": "[6]", "value": "Active"},
      {"measurement": "inhibition", "setting": "HepG2 [7]", "value": "inactive"},
      {"measurement": "Activity", "setting": "Hepatitis B virus [2]", "value": "Active"},
      {"measurement": "IC50", "setting": "[8]", "value": 8.35, "unit": "µM"},
      {"measurement": "IC50", "setting": "[9]", "value": 4.77, "unit": "µM"},
      {"measurement": "inhibition (INH)", "setting": "[3]", "value": "Not Active"},
      {"measurement": "inhibition", "setting": "HepG2 [10]", "value": "inactive"},
      {"measurement": "inhibition (INH)", "setting": "[11]", "value": "Not Active"}
    ]}
  ]
}
